Experimental data as given in patent US12263248B2, “Compounds and compositions for intracellular delivery of therapeutic agents” (ModernaTX, Inc., priority 2018, dated 2025).

Tests used:
[1] = Particle size and polydispersity index of nanoparticle compositions (Zetasizer Nano ZS); assay type: physicochemical
Outline: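 Zetasizer Nano ZS; samples in 1×PBS; read-out: particle size plus polydispersity index.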

[2] = Encapsulation efficiency of RNA (QUANT-IT RIBOGREEN RNA assay); assay type: physicochemical
Outline: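 RiboGreen fluorescence (ex ~480, em ~520 nm) compared between intact samples and Triton X-100-lysed samples after 15 min at 37 °C in TE buffer, pH 7.5. Percent free RNA is the blank-corrected intact/disrupted ratio.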

[3] = Apparent (surface) pKa of the LNP formulation (TNS assay); assay type: physicochemical; settings: for pKa: Table 1A
Outline: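 Fluorescence of TNS probe added to LNP samples (mRNA 0.04 mg/mL) was read across 21 buffers of pH about 3-12, triplicate per pH. The inflection point of the sigmoidal fluorescence-vs-pH curve, […], gives apparent pKa; method validated in 1× PBS and Tris/sucrose buffer.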

luciferase (Luc) mRNA [4] = test: Luc expression, whole body bioluminescence after intravenous administration to mice; assay type: in vivo
Outline: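 Bioluminescence, read as region-of-interest total flux at 3, 6 and 24 h, followed a single 0.5 mg/kg intravenous dose of Luc mRNA-loaded nanoparticles in mice (n=6). Luciferin substrate (200 μL, 15 mg/mL in PBS) was injected intraperitoneally into CD-1 mice 15 minutes ahead of each imaging point.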

luciferase (Luc) mRNA [5] = test: Luc expression (total flux) after intramuscular administration; assay type: in vivo, mice; settings: Table 3H; intramuscular, Luc
Outline: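 Total-flux luciferase signal in mice after one intramuscular injection. Nanoparticle formulations contained modified Luc mRNA, either alone or co-dosed with H10 mRNA (e.g., 0.0005 or 0.005 mpk of each), giving 0.001 or 0.01 mpk.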

[6] = Lipid clearance: lipid level in mouse liver tissue (LC-MS/MS); assay type: in vivo; settings: for % Dose Remaining in Liver 6 h: Table 3D, intravenous
luciferase (Luc) mRNA [7] = test: Luc expression in liver, lung, spleen and femur 6 hours after intravenous administration; assay type: in vivo; settings: mice, intravenous, 0.5 mpk
Outline: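 LNP-formulated mRNA given IV to mice (n=3) at 0.5 mpk; at 6 h, bioluminescence imaged ex vivo 15 min after IP D-luciferin (15 mg/mL, 200 μL), organs imaged within 25 min. Values are total flux by region of interest.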

hEPO mRNA [8] = test: hEPO expression after intramuscular administration to mice; assay type: in vivo; settings: Table 3I, hEPO
Description: The expression of hEPO and cytokine induction in mice intravenously administered a nanoparticle composition at a dose of 0.5 mpk were measured at 3, 6, and 24 hours. […] The expression of hEPO in mice intramuscularly administered a nanoparticle composition from Table 1B at a dose of 0.01 mpk were measured at 3, 6, and 24 hours.
(§1) Blood collection and analysis for hEPO. Blood was collected from mice or rats via the tail vein and hEPO concentrations were determined using a hEPO ELISA assay.

hEPO mRNA [9] = test: hEPO expression after intravenous administration to rats; assay type: in vivo, rat; settings: Table 19B; for Lipid/MC3 ([hEPO] ratio) / Lipid/MC3 AUC: relative to MC3; for [hEPO]: species, dose and time not given
Description: The expression of hEPO and cytokine induction in rats intravenously administered a nanoparticle composition at a dose of 2.0 mpk was measured at 6 h.
(§2) The expression of hEPO in rats intravenously administered a nanoparticle composition at a dose of 0.2 mpk or 2.0 mpk was measured at 6 hours. Table 16 summarize the ratio of hEPO expression levels using various nanoparticle compositions as compared to the hEPO expression level using MC3 formulation and the lipid levels in the liver measured 48 hours after administration, as described above. Tables 17 and 18 summarize the lipid levels in the liver and spleen measured 48 hours after administration of Compounds 28, 33, 53, and 54. Liver and spleen levels represent the average values calculated for 3 rats in each group. As is shown in Tables 17 and 18, less than 10% of Compounds 28, 33, 53, and 54 remained in the liver after 48 hours, while greater than 60% of MC3 remained.
The expression of hEPO induced by intravenous administration to rats of nanoparticle compositions at various doses was measured at 2, 4, 6, 8, 24, and 48 hour time points. FIGS. 3-6 respectively summarize the hEPO expression measured upon intravenous administration of formulations including Compounds 26, 18, 25, and MC3 to rat at various doses. The lipid levels of Compound 26 in the liver after 48 hours were about 19%.
(§3) 005781 The expression of hEPO and lipid levels in the liver and spleen in rats intravenously administered a nanoparticle composition at a dose of 0.2 mpk was measured at various time points. Compounds 18 and 25 were selected for comparison with MC3. Lipids were formulated according to the standard MC3 formulation described above. Rats were administered intravenously a single 0.2 mpk dose and expression monitored at 0.25, 0.5, 1, 2, 4, 8, 24, and 48 hours after administration.
as §1

[10] = Residual lipid levels in rat liver and spleen (UPLC-MS); assay type: in vivo; settings: Table 19B, liver, 24 h
Description: At 48 h liver tissue was harvested for lipid quantification. To pre-weighed tissues, Milli-Q water was added (900 μL water per 100 mg tissue). Tissues were homogenized using an Omni probe homogenizer until uniform. 50 μL of samples and matrix calibration standards were aliquoted into a 96-well plate. 50 μL of blank matrix for matrix blanks and control blanks were aliquoted. 400 μL is spiking solution were manually added to all samples except matrix blanks. 400 μL of 50:50 ACN:IPA were manually added to matrix blanks. The plate was covered and the samples vortexed and centrifuged for 5 minutes at >3000 rpm. 200 μL of the samples were transferred into a clean 96-well plate for analysis. Samples were analyzed on a Waters Acquity UPLC using a Higgins Analytical Clipeus C8 column ([…], 30×2.1 mm) and a gradient of either 70-95% or 60-95% (Mobile Phase A: 5 mM ammonium formate in 50:50:1 H2O:MeOH:formic acid; Mobile Phase B: 5 mM ammonium formate in 100:1 MeOH:formic acid) over 1.3 min at 1.2 mL/min (column temperature 55° C.). Detection was based on electrospray ionization (ESI) in positive mode using a Sciex API5500 Mass Spectrometer.
as §2, §3

[11] = Table 1A, lipid:DSPC:cholesterol:PEG-DMG 50:10:38.5:1.5 mol %
[12] = Table 1B, formulated with hEPO mRNA

PDI [1, 12] | Size (nm) [1, 12] [nm] | EE (%) [2, 12] [%] | % dose remaining, liver, 24 h [10] [%] | SMILES | AUC (hEPO) (hEPO mRNA [9]) [pg·h/mL] | Lipid/MC3 AUC (hEPO mRNA [9]) | [hEPO] (hEPO mRNA [9]) [pg/mL] | also measured
0.16 | 85.8 | 96.5 | 0.04 | CCCCCCCCC(CCCCCCCC)OC(=O)CCCCCCCN(CCO)CCCCCCCC(=O)OCC(C)CCCCCCC (stereo not shown) [Compound 184, Heptadecan-9-yl 8-((2-hydroxyethyl)(8-((2-methylnonyl)oxy)-8-oxooctyl)amino)octanoate] | 1.41e+08 | 7.64 | 1.05e+07 | PDI ([1]; Table 1A): 0.13; Size (nm) [1, 11]: 77.2 nm; EE (%) ([2]; Table 1A): 94.2%; pKa [3]: 6.47; 6 h BLI Lipid/MC3 (luciferase (Luc) mRNA [4]; Table 3E, intravenous): 7.46; % Remaining dose at 6 h ([6]; Table 3E, mouse liver, 6 h): 0.282%; % Remaining dose at 24 h ([6]; Table 3E, mouse liver, 24 h): 0%; Lipid/MC3 ([hEPO] ratio) (hEPO mRNA [9]): 7.13
0.16 | 95.5 | 93.9 | 0.00 | CCCCCCCCC(CCCCCCCC)OC(=O)CCCCCCCN(CCO)CCCCCCCCCC(=O)OCCCCCCC [Compound 189, Heptyl 10-((8-(heptadecan-9-yloxy)-8-oxooctyl)(2-hydroxyethyl)amino)decanoate] | 4.35e+07 | 2.35 | 3.01e+06 | 
0.23 | 150.3 | 76.3 | 0.00 | CCCCCCCCCOC(=O)CCCCCCCN(CCO)CCCCCC(=O)OC1CCC(CCCCC)CC1 (stereo not shown) [Compound 232, Nonyl 8-((2-hydroxyethyl)(6-oxo-6-((4-pentylcyclohexyl)oxy)hexyl)amino)octanoate] | 73800 | <0.01 | 7024.114 | 
0.22 | 96.3 | 94.7 | 0.03 | CCCCCCCCCOC(=O)CCCCCCCN(CCO)CCCCCCC(C)OC(=O)C(CCCCCCCC)CCCCCCCC (stereo not shown) [Compound 234, 8-((2-Hydroxyethyl)(8-(nonyloxy)-8-oxooctyl)amino)octan-2-yl 2-octyldecanoate] | 5.17e+07 |  | 3.56e+06 | 

The remaining lines, values behind:

SMILES | PDI [1, 12] | Size (nm) [1, 12] [nm] | EE (%) [2, 12] [%] | % dose remaining, liver, 24 h [10] [%] | AUC (hEPO) (hEPO mRNA [9]) [pg·h/mL] | Lipid/MC3 AUC (hEPO mRNA [9]) | [hEPO] (hEPO mRNA [9]) [pg/mL] | also measured
CCCCCCCCCOC(=O)CCCCCCCN(CCCCCCCC(=O)OC(CCCCCCCC)CCCCCCCC)C(C)CO (stereo not shown) [Compound 157, Heptadecan-9-yl 8-((1-hydroxypropan-2-yl)(8-(nonyloxy)-8-oxooctyl)amino)octanoate] |  |  |  |  |  |  |  | PDI ([1]; Table 1A): 0.093; Size (nm) [1, 11]: 61 nm; EE (%) ([2]; Table 1A): 96.04%; pKa [3]: 6.275; App. pKa ([3]; Table 3F): 6.27; Lipid/MC3 AUC (luciferase (Luc) mRNA [4]; Table 3D, intravenous): 1.3; AUC (p/s * h) (luciferase (Luc) mRNA [4]; Table 3D, intravenous, Luc): 2.481E+011 p/s * h; Novel lipid/MC3 expression ratio, 6 hr. time point, i.v. (luciferase (Luc) mRNA [4]; luciferase, intravenous, relative to MC3 formulation): 1.29; Total Flux 3 hours (luciferase (Luc) mRNA [4]; mice, i.v., 0.5 mg/kg, Luc mRNA, 3 hours): 8.54E+09; Total Flux 6 hours (luciferase (Luc) mRNA [4]; mice, i.v., 0.5 mg/kg, Luc mRNA, 6 hours): 2.22E+10; Total Flux 24 hours (luciferase (Luc) mRNA [4]; mice, i.v., 0.5 mg/kg, Luc mRNA, 24 hours): 1.90E+08; AUC (p/s * h) (luciferase (Luc) mRNA [5]): 4.68E+08 p/s * h; Lipid/MC3 AUC (luciferase (Luc) mRNA [5]): 0.80; % Dose Remaining in Liver 6 h ([6]; second column (head also says 6 h)): <1%; % Dose Remaining in Liver 6 h [6]: <1%; Total Flux Liver (luciferase (Luc) mRNA [7]; liver): 2.27E+09; Total Flux Lung (luciferase (Luc) mRNA [7]; lung): 6.70E+06; Total Flux Spleen (luciferase (Luc) mRNA [7]; spleen): 5.15E+07
CCCCCCCCCOC(=O)CCCCCCCN(CCCCCCCC(=O)OC(CCCCCCCC)CCCCCCCC)CCCNc1c(NC)c(=O)c1=O [Compound 182, Heptadecan-9-yl 8-((3-((2-(methylamino)-3,4-dioxocyclobut-1-en-1-yl)amino)propyl)(8-(nonyloxy)-8-oxooctyl)amino)octanoate] |  |  |  |  |  |  |  | PDI ([1]; Table 1A): 0.14; Size (nm) [1, 11]: 84.4 nm; EE (%) ([2]; Table 1A): 99.0%; pKa [3]: 6.48; Lipid/MC3 6 h timepoint (hEPO mRNA [8]): 1.6; Lipid/MC3 AUC (hEPO mRNA [8]): 1.2
CCCCCCCCCOC(=O)CCCCCCCN(CCCCCCCC(=O)OC(CCCCCCCC)CCCCCCCC)CCCNC(=O)C(C)C [Compound 194, Heptadecan-9-yl 8-((3-isobutyramidopropyl)(8-(nonyloxy)-8-oxooctyl)amino)octanoate] |  |  |  |  |  |  |  | Lipid/MC3 6 h timepoint (hEPO mRNA [8]): 5.5; Lipid/MC3 AUC (hEPO mRNA [8]): 6.2
CCCCCCCCC(CCCCCCCC)OC(=O)CCCCCCCN(CCO)CCCCCC(=O)OC(C)CCCCCCCCOC(C)=O (stereo not shown) [Compound 235, Heptadecan-9-yl 8-((6-((10-acetoxydecan-2-yl)oxy)-6-oxohexyl)(2-hydroxyethyl)amino)octanoate] | 0.24 | 228 | 40.9 | 0.06 | 1.71e+07 | 0.93 | 1.27e+06 | Lipid/MC3 ([hEPO] ratio) (hEPO mRNA [9]): 0.8601
CCCCCCCCCOC(=O)CCCCCCCNCCCCCCCC(=O)OC(CCCCCCCC)CCCCCCCC [Compound 237] | 0.15 | 82.5 | 99.3 | 0.14 | 4.09e+07 |  | 3.47e+06 | 
CCCCCCCCCOC(=O)CCCCCCCN(CCCCCCCC(=O)OC(CCCCCCCC)CCCCCCCC)CCCC(N)=O [Compound 243, Heptadecan-9-yl 8-((4-amino-4-oxobutyl)(8-(nonyloxy)-8-oxooctyl)amino)octanoate] | 0.35 | 90.6 | 99.4 | 0.05 | 445000 | 0.02 | 40600 | Lipid/MC3 ([hEPO] ratio) (hEPO mRNA [9]): 0.02755
CCCCCCCCCOC(=O)CCCCCCCN(CCCCCCCC(=O)OC(CCCCCCCC)CCCCCCCC)CCNC(C)=O [Compound 244, Heptadecan-9-yl 8-((2-acetamidoethyl)(8-(nonyloxy)-8-oxooctyl)amino)octanoate] |  |  |  |  |  |  |  | Lipid/MC3 6 h timepoint (hEPO mRNA [8]): 0.4; Lipid/MC3 AUC (hEPO mRNA [8]): 0.4
